This passage reports GI50 and TGI results from PubChem BioAssay (NCI).

Some test systems named below: NCI-H522 lung; SNB-75 CNS; UACC-62 melanoma; HT29 colon; M14 melanoma; MDA-MB-231 breast; KM12 colon; A498 renal; SW-620 colon; RXF 393 renal.
Holding throughout (assay): inhibition of tumour cell growth, NCI panel, 48 h

Where “and” joins values, the source holds several entries; their conditions need not be identical. Equal values may be shown once.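 Cultured in 96-well plates, cells were exposed to test compound for 48 hours across five concentrations. The concentration for 50% growth inhibition is given as GI50. The concentration for full growth arrest is given as TGI.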

Consider `COc1cc(-n2cc(-c3ccccc3)[nH]c2=O)cc(OC)c1OC`, for which the GI50 was 27200 nM in the assay with NCI-H522 lung; 13900 nM with SNB-75 CNS; 36900 nM in the assay on UACC-62 melanoma; over 100000 nM in the assay on HT29 colon; over 100000 nM in the assay with M14 melanoma; 37200 nM in the assay on MDA-MB-231 breast. Also, the GI50 is over 100000 nM in the assay with KM12 colon, 35100 nM in the assay with A498 renal and over 100000 nM in the assay on SW-620 colon. For the same molecule, the TGI in the assay with NCI-H522 lung is over 100000 nM; in the assay on SNB-75 CNS, 34000 nM; in the assay with UACC-62 melanoma it was over 100000 nM; in the assay with HT29 colon it was over 100000 nM; in the assay on M14 melanoma, over 100000 nM; in the assay on MDA-MB-231 breast it was over 100000 nM. For the same molecule, the TGI with KM12 colon, with A498 renal and in the assay on SW-620 colon was over 100000 nM in each case.
For `NCCCOc1cc2ccccc2cc1C(=O)Nc1ccc(Cl)cc1OC(=O)c1cc2ccccc2cc1OCCCN`, the GI50 was 235 nM with NCI-H522 lung; 119 nM in the assay with SNB-75 CNS; 1440 nM in the assay on UACC-62 melanoma; 610 nM in the assay with RXF 393 renal; 266 nM in the assay with HT29 colon; 321 nM in the assay with M14 melanoma. The GI50 was 596 nM in the assay on MDA-MB-231 breast, 190 nM in the assay with KM12 colon, 1530 nM with A498 renal and 181 nM in the assay on SW-620 colon. The TGI in the assay with NCI-H522 lung is 639 nM; in the assay with SNB-75 CNS, 859 nM; with UACC-62 melanoma it was 2850 nM; in the assay with RXF 393 renal, 1690 nM; in the assay with M14 melanoma it was 1260 nM; with MDA-MB-231 breast it was 1990 nM. The values for the TGI in the assay with KM12 colon, with A498 renal and in the assay on SW-620 colon were 394 nM, 2920 nM and 345 nM, respectively.
For `N#CC1=C(N)NC(=S)NC1c1ccc(-c2ccc(-c3nc4ccccc4o3)cc2)s1` (stereo unspecified), the GI50 in the assay on NCI-H522 lung was 9650 nM; in the assay on UACC-62 melanoma, 9200 nM; with M14 melanoma, 12600 nM; in the assay on MDA-MB-231 breast, 7160 nM; in the assay with KM12 colon it was 15100 nM; in the assay on SW-620 colon, 21300 nM. Moreover, the TGI in the assay with NCI-H522 lung is 20800 nM; with UACC-62 melanoma it was 21300 nM; in the assay on M14 melanoma, 30300 nM; in the assay on MDA-MB-231 breast it was 16400 nM; with KM12 colon, over 50000 nM; with SW-620 colon, over 50000 nM.
For `Nc1ccccc1C#C/C=C\C#CC#C/C=C\C#Cc1ccccc1N`, the GI50 in the assay with NCI-H522 lung is 3930 nM; in the assay with SNB-75 CNS it was 3270 nM; in the assay on UACC-62 melanoma it was 2180 nM; in the assay with RXF 393 renal, 2180 nM; in the assay with HT29 colon, 8360 nM; in the assay with MDA-MB-231 breast, 1540 nM. Also, the GI50 in the assay with KM12 colon was 3640 nM; with A498 renal, 5360 nM; in the assay with SW-620 colon, 7540 nM. Further, the TGI in the assay with NCI-H522 lung came to 16000 nM; with SNB-75 CNS it was 22000 nM; in the assay with UACC-62 melanoma it was 13100 nM; with RXF 393 renal it was 6220 nM; in the assay with HT29 colon, 32700 nM; in the assay with MDA-MB-231 breast, 14800 nM. Also, the TGI is over 100000 nM in the assay with KM12 colon, 20600 nM in the assay with A498 renal and 30700 nM in the assay with SW-620 colon.
For the molecule `COc1ccc(C(C)c2cc(OC)c(OC)c(OC)c2)cc1` (stereo unspecified), the GI50 in the assay with NCI-H522 lung was 133 nM; with UACC-62 melanoma, 270 nM; in the assay on RXF 393 renal, 126 nM; in the assay on HT29 colon, 107 nM; in the assay on MDA-MB-231 breast it was 341 nM; in the assay on KM12 colon, 58 nM. The results for the GI50 in the assay on A498 renal and in the assay with SW-620 colon were 125 nM and 58.1 nM, respectively. For the same molecule, the TGI in the assay on NCI-H522 lung, with UACC-62 melanoma, with RXF 393 renal, with HT29 colon, in the assay on MDA-MB-231 breast and in the assay on KM12 colon was over 50000 nM each time. The TGI with A498 renal and with SW-620 colon was over 50000 nM throughout.
Take `Nc1ncnc2c1ncn2C1OC(COS(N)(=O)=O)C(O)C1O` (stereo unspecified): the TGI is 14.8 nM with NCI-H522 lung; 8.3 nM and 56.5 nM in the assay with SNB-75 CNS; 4.94 nM and 36 nM with M14 melanoma; 34.4 nM in the assay on A498 renal. The GI50 is 2.55 nM and 19.4 nM in the assay with SNB-75 CNS; 2.14 nM and 18.1 nM in the assay with M14 melanoma; under 1 nM in the assay on MDA-MB-231 breast; 16.4 nM with A498 renal.
With `O=C(O)[C@@H]1OCCOCCO[C@@H](C(=O)O)[C@H](C(=O)O)OCCOCCO[C@H]1C(=O)O`, the TGI with NCI-H522 lung is over 100000 nM; with SNB-75 CNS, over 100000 nM; in the assay on UACC-62 melanoma it was over 100000 nM; in the assay with RXF 393 renal it was over 24900 nM; in the assay with HT29 colon, over 100000 nM; in the assay on M14 melanoma it was over 100000 nM. For the same molecule, the values for the TGI in the assay with KM12 colon, with A498 renal and in the assay on SW-620 colon were over 100000 nM, over 100000 nM and over 90100 nM, respectively.
Consider `CCCOc1cc2ccccc2cc1C(=O)Nc1nc(NC)c2c(ccc3nccc32)[nH]1`, for which the GI50 with NCI-H522 lung is 44.9 nM; in the assay with UACC-62 melanoma, 556 nM; in the assay on RXF 393 renal, 404 nM; with HT29 colon, 208 nM; with M14 melanoma, 444 nM; with MDA-MB-231 breast, 1340 nM. Further, the GI50 was 295 nM in the assay on KM12 colon, 359 nM in the assay with A498 renal and 383 nM with SW-620 colon. For the same molecule, the TGI in the assay on NCI-H522 lung is 219 nM; in the assay with UACC-62 melanoma, 2120 nM; in the assay with RXF 393 renal it was 1680 nM; in the assay on HT29 colon, 446 nM; in the assay with M14 melanoma, 1980 nM; in the assay with MDA-MB-231 breast it was 2870 nM. Also, the TGI turned out to be 1460 nM with KM12 colon, 1750 nM in the assay on A498 renal and 1740 nM in the assay on SW-620 colon.
For `N#Cc1ccc(-c2c(-c3ncn[nH]3)sc(N3CCOCC3)c2C#N)c(F)c1`, the GI50 is 1170 nM with NCI-H522 lung; 73.6 nM in the assay with SNB-75 CNS; 384 nM in the assay on UACC-62 melanoma; 246 nM in the assay on RXF 393 renal; 363 nM in the assay on HT29 colon; 3280 nM in the assay with MDA-MB-231 breast. Further, the GI50 with KM12 colon is 2250 nM; in the assay with A498 renal it was 22.5 nM; with SW-620 colon it was 2940 nM. Further, the TGI with NCI-H522 lung came to 15000 nM; in the assay on SNB-75 CNS, 771 nM; in the assay on UACC-62 melanoma it was 2640 nM; in the assay with RXF 393 renal, 1680 nM; with HT29 colon, 18300 nM; in the assay on MDA-MB-231 breast, 25700 nM. Moreover, the TGI came out at 15600 nM in the assay with KM12 colon, 206 nM with A498 renal and 29900 nM with SW-620 colon.
